Assay in all cases: inhibition of tumour cell growth, NCI panel, 48 h
The subject of assay [1] is HL-60(TB) leukemia.
Assay [2] relates to SK-MEL-5 melanoma.
Assay [3] deals with HCT-15 colon.
Assay [4] has as its system NCI-H522 lung.
Assay [5] relates to COLO 205 colon.
Assay [6] concerns HOP-92 NSCLC.
Assay [7] relates to KM12 colon.
The subject of assay [8] is LOX IMVI melanoma.
In assay [9] the test system is NCI/ADR-RES ovarian.
Assay [10] deals with OVCAR-3 ovarian.
Assay [11] relates to T-47D breast.

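Test compounds were applied to cells in 96-well plates for 48 hours at 5 doses. TGI: concentration producing complete growth inhibition.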

Regarding `CCOc1ccc(/C=C(\Cl)c2ccc(OC)c(OC)c2)cc1`, the TGI in [1] was greater than 100 µM; in assay [2], greater than 100 µM; in [3], greater than 100 µM; in [4] it was 74.1 µM; in assay [5], greater than 100 µM; in [6], greater than 100 µM.

For the compound `O=C1CSc2nc3ccccc3n2/C=N\N1`, the TGI in assay [2], in assay [3], in assay [7], in assay [4], in assay [8] and in assay [5] was greater than 100 µM each time. Further, the TGI in assay [9] and in assay [6] was greater than 100 µM in each case.

Take `CN(C)c1nc(NC23CC4CC(CC(C4)C2)C3)nc(N(C)C)n1`: the TGI in assay [1] was 13.5 µM; in assay [2], 24.8 µM; in [3], 41.2 µM; in assay [7] it was greater than 100 µM; in assay [8] it was 17.8 µM; in [5], greater than 49.6 µM. The TGI in [9] is greater than 100 µM; in [10], greater than 76.2 µM; in [6], 82.2 µM; in assay [11], 49.6 µM.

For `O=C(CC/C=C(/CS(=O)(=O)c1ccccc1)S(=O)(=O)c1ccccc1)c1ccccc1`, the TGI in assay [1] was greater than 100 µM; in [2] it was greater than 100 µM; in assay [3] it was greater than 100 µM; in assay [7], greater than 100 µM; in assay [4] it was 49.8 µM; in assay [8] it was greater than 100 µM. In addition, the TGI in assay [10] and in assay [6] was greater than 100 µM in each case.

Take `CC(C)SC(C)(NC(=O)C1C(C)(C)CCC1(C)C)C(=O)O` (stereo not drawn): the TGI in [1], in assay [2], in [3], in assay [8], in [5] and in [9] was greater than 100 µM in each case. In addition, the TGI in assay [6] and in [11] was greater than 100 µM each time.

As to `O=C1CC(=O)c2c(O)cc(O)c(c2O)-c2c(ccc(O)c2O)C2=CC(=O)c3c(O)cc(O)c(c3O2)-c2c1ccc(O)c2O` (tested in a mixture with another compound), the TGI in [1], in [2], in assay [3], in [8], in assay [5] and in [9] was greater than 50 µM throughout. In addition, the TGI in [10], in assay [6] and in assay [11] was greater than 50 µM in each case.

As for `O=C(NCCC(F)(F)C(F)(F)C(F)(F)C(F)(F)F)NC1OC(CO)C(O)C(O)C1O` (stereo not drawn), the TGI in [1], in assay [2], in assay [3], in assay [7], in [8] and in assay [5] was greater than 100 µM each time. Moreover, the TGI in assay [9], in [10], in [6] and in assay [11] was greater than 100 µM throughout.

Turning to `O=C(/C=C/c1cccc(Br)c1)c1cccs1`, the TGI stood at 17.7 µM in [1]; 30.7 µM in assay [2]; 35.8 µM in assay [3]; 31.6 µM in [7]; 46 µM in assay [5]; 56.9 µM in assay [9]. For the same compound, in assay [11], the TGI worked out at 34 µM.

Take `COc1cc2c(c(OC)c1OC)-c1ccc(SC)c(=O)cc1[C@@H](OC(C)=O)CC2`: the TGI in assay [1] is 0.0242 µM; in [3], greater than 100 µM; in assay [7] it was greater than 48.5 µM; in assay [8] it was greater than 100 µM; in [5] it was greater than 100 µM; in [6] it was greater than 100 µM. The TGI in assay [11] was greater than 100 µM.

`O=C(O)CCCCCOc1cccnc1/C=N/NC1=NCCN1`: the TGI in [1], in assay [2], in assay [3], in assay [7], in [4] and in assay [8] was greater than 100 µM throughout. The TGI in [5], in [10] and in assay [6] was greater than 100 µM in each case.

Take `O=C1O/C(=C(\Br)c2cccc3ccccc23)c2ccccc21`: the TGI is 47.7 µM in [1]; 51.1 µM in [2]; greater than 65.6 µM in [3]; greater than 55.2 µM in assay [7]; 33 µM in [4]; greater than 100 µM in [8]. Further, the TGI in assay [5] was greater than 53.8 µM; in assay [10], greater than 57.2 µM; in [6] it was greater than 56.9 µM.

In the case of `COC(=O)/C=C(\C)C(=O)N(C)c1ccccc1I`, the TGI in [2], in assay [3], in assay [7], in [8], in assay [5] and in assay [9] was greater than 100 µM in each case. In addition, the TGI in assay [10], in assay [6] and in assay [11] was greater than 100 µM each time.

As for `N#Cc1c(SCc2ccccc2)nc(-c2ccccc2)[nH]c1=S`, the TGI in assay [1] was greater than 100 µM; in assay [2] it was 54.8 µM; in [3] it was 50.4 µM; in assay [7], 34.5 µM; in assay [8], 63.9 µM; in [5], 48.8 µM. The TGI in [9] was 67.4 µM; in [10], 36.3 µM; in assay [6], 85.7 µM; in assay [11], 80.2 µM.

In the case of `CC12CCC(C(=O)O1)C(C)(C)O2` (stereo not drawn), the TGI in assay [1], in [3], in assay [7], in assay [4], in [8] and in assay [9] was greater than 100 µM throughout. In addition, the TGI in assay [10] and in [6] was greater than 100 µM in each case.

For `Cc1c2c(cc3c1[nH]c1ccccc13)C=NCC2`, the TGI amounted to 27.8 µM in [1]; 12.7 µM in assay [2]; 61.8 µM in assay [3]; 27.8 µM in [7]; 41.8 µM in assay [4]; 36.6 µM in [8]. The TGI was 22.4 µM in assay [5], 63.3 µM in assay [9], 11.8 µM in [10] and 16.4 µM in assay [6].

On to `C=C1C(=O)OC2(C)C3CCC(C3)C12` (stereo not drawn), for which the TGI was 84.6 µM in [1]; greater than 100 µM in assay [2]; greater than 100 µM in assay [3]; greater than 100 µM in assay [7]; 85.8 µM in [4]; greater than 100 µM in assay [8]. Moreover, the values for the TGI in [5], in assay [10] and in [6] were 48.4 µM, greater than 100 µM and 87.4 µM, respectively.

For `O=C(Nc1cccc(C(F)(F)F)c1)O/N=C(/Cl)CCl`, the TGI in assay [1] was 38.7 µM; in assay [2], greater than 100 µM; in assay [3], greater than 100 µM; in [7] it was greater than 100 µM; in assay [8], 69.9 µM; in assay [5], greater than 100 µM. In addition, the TGI is greater than 100 µM in [9], greater than 100 µM in assay [10], 59.2 µM in [6] and greater than 100 µM in [11].

As for `CCCCCCCCCCCCCCCCSCC(COC)COP(=O)([O-])OCC[N+](C)(C)C` (stereo not drawn), the TGI is 4.4 µM in [1]; 25.2 µM in [2]; 10.3 µM in assay [3]; 2.45 µM in [7]; 10.9 µM in [4]; 17.4 µM in assay [8]. Also, the TGI in assay [5] is 3.96 µM; in assay [9] it was 30 µM; in assay [10], 17 µM; in assay [6], 5.18 µM.

Regarding `NCCCn1c2ccccc2c2c3c(c4c(c21)CCC(O)CC4)C(=O)NC3=O` (stereo not drawn), the TGI in assay [1] came out at 22 µM; in [2], 16.5 µM; in assay [3], 23 µM; in assay [7] it was 10.7 µM; in [4] it was 13.2 µM; in [8], 2.92 µM. In addition, the TGI in assay [9] was 32.9 µM; in [10] it was 12.2 µM; in assay [6], 12.9 µM.

Turning to `CCN(CC)CCCOC(=O)/C=C/c1c(C)[nH]c(=O)[nH]c1=O`, the TGI in [1], in assay [2], in assay [3], in assay [7], in assay [4] and in [8] was greater than 625 µM each time. Also, the TGI in [5], in assay [9], in [10] and in assay [6] was greater than 625 µM in each case.

In the case of `C=CCOCn1cnc2c(N)ncnc21`, the TGI in [1], in assay [2], in assay [3], in assay [7], in assay [8] and in assay [5] was greater than 100 µM in each case. For the same compound, the TGI in assay [9] and in [11] was greater than 100 µM throughout.

Take `Cc1cc(-c2[nH]c(C(=O)O)cc2I)on1`: the TGI in [2], in assay [3], in [7], in [4], in assay [5] and in assay [9] was greater than 100 µM in each case. In addition, the TGI in assay [10] and in [6] was greater than 100 µM in each case.

With `O=c1/c(=C\c2ccccc2)sc2n1C(c1ccccc1)C1(O)CCCCC1N=2` (stereo not drawn), the TGI in assay [1], in [2], in assay [3], in [4], in [8] and in [10] was greater than 100 µM throughout. In addition, the TGI in [11] was greater than 100 µM.

For the compound `COc1ccc(N2C(=Nc3ccccc3)SC(=N/S(=O)(=O)c3ccccc3)/C2=N\S(=O)(=O)c2ccccc2)cc1`, the TGI in [1] amounted to 33.4 µM; in assay [2] it was 31.9 µM; in assay [3] it was 31.8 µM; in assay [7] it was 88.7 µM; in assay [5], 41 µM; in assay [6] it was 42 µM. Besides, in assay [11], the TGI was 20.1 µM.

With `Cc1cc(O)c2c(c1O)C(=O)C13C(=C2O)C(=O)C2C(O)C1C1C(O)C3C(=O)C3=C(O)c4c(O)cc(C)c(O)c4C(=O)C321` (stereo not drawn), the TGI in assay [2] was 0.364 µM; in assay [3] it was 0.182 µM; in assay [7], 10.7 µM; in assay [4] it was 0.543 µM; in assay [8], 1.46 µM; in [5] it was 0.112 µM. This compound had a TGI in [9] of 12.2 µM.

Take `Cc1sc2nc(-c3cc([N+](=O)[O-])c(Cl)cc3Cl)c(/C=N/N=C(N)N)n2c1C`: the TGI was 27.1 µM in [2]; greater than 100 µM in assay [3]; 19.5 µM in assay [7]; 34.2 µM in [4]; greater than 100 µM in assay [9]; 30.3 µM in [10]. This compound had a TGI in assay [6] of 31.5 µM.

For the compound `C=C1C[C@@H](O)C[C@@]2(C)C[C@@H]3OC(=O)C(=C)[C@@H]3C[C@H]12`, the TGI is 5.94 µM in [1]; 11.7 µM in assay [2]; 18.2 µM in assay [3]; 28.6 µM in assay [7]; 21.6 µM in [4]; 21.5 µM in assay [8]. Besides, the TGI in assay [5] was found to be 3.02 µM; in [9], 28.4 µM; in [10], 35.2 µM; in [6] it was 28.1 µM.

Turning to `COc1cccc(-c2ccc3c4c2O[C@H]2c5[nH]c6ccccc6c5C[C@@]5(O)[C@@H](C3)N(CC3CC3)CC[C@]425)c1`, the TGI in [2] turned out to be 3.85 µM; in [3] it was 3.7 µM; in assay [7], 3.26 µM; in assay [8] it was 3.09 µM; in [5], 4.15 µM; in [9], 5.21 µM. The TGI in assay [10] was 3.3 µM; in assay [6] it was 3.04 µM; in assay [11], 4.23 µM.

On to `O=C(Nc1nc2c(=O)[nH]cnc2s1)c1ccccc1`, for which the TGI in [1], in assay [2], in [3], in [4], in [8] and in [5] was greater than 100 µM each time. The TGI in [9], in [10] and in assay [6] was greater than 100 µM each time.

Regarding `CC(=O)OCC1OC(n2cc(F)c(=O)[nH]c2=O)C(N)C(OC(C)=O)C1OC(C)=O` (stereo not drawn), the TGI in assay [1], in [2], in [3], in assay [7], in [4] and in assay [8] was greater than 100 µM throughout. Besides, the TGI in assay [5], in assay [9], in [10] and in assay [6] was greater than 100 µM each time.

The values are drawn from PubChem BioAssay (NCI).
